PMC5218480 (PLoS ONE, 2017)

Test system: MV-4-11 cells
Experiment: Gene expression microarray analysis (Affymetrix PrimeView) and GSEA
Type: cell-based, human
Design: RFU PODN (11730768_x_at) / Fold change /veh PODN (11730768_x_at) / RFU LINC00158 (11744669_a_at) / Fold change /veh LINC00158 (11744669_a_at) / RFU DUSP10 (11751237_a_at) / Fold change /veh DUSP10 (11751237_a_at) / RFU ID3 (11757404_x_at) / Fold change /veh ID3 (11757404_x_at) / RFU PLEKHG5 (11737974_s_at) / Fold change /veh PLEKHG5 (11737974_s_at) / RFU LRRC4B (11730491_at) / Fold change /veh LRRC4B (11730491_at) / RFU GIMAP4 (11747438_a_at) / Fold change /veh GIMAP4 (11747438_a_at) / RFU KRT8 (11758183_x_at) / Fold change /veh KRT8 (11758183_x_at) / RFU CNN1 (11734310_a_at) / Fold change /veh CNN1 (11734310_a_at) / RFU VPS37D (11726825_at) / Fold change /veh VPS37D (11726825_at) / RFU C10orf10 (11716522_x_at) / Fold change /veh C10orf10 (11716522_x_at) / RFU KIR2DL2 /// KIR2DL4 /// KIR2DL5A /// KIR2DL5B /// KIR2DS1 /// KIR2DS2 /// KIR2DS3 /// KIR2DS4 /// KIR3DL3 /// KIR3DL3 /// KIR3DS1 (11738374_at) / Fold change /veh KIR2DL2 /// KIR2DL4 /// KIR2DL5A /// KIR2DL5B /// KIR2DS1 /// KIR2DS2 /// KIR2DS3 /// KIR2DS4 /// KIR3DL3 /// KIR3DL3 /// KIR3DS1 (11738374_at) / RFU C1QL1 (11718748_at) / Fold change /veh C1QL1 (11718748_at) / RFU TMPRSS4 (11747572_a_at) / Fold change /veh TMPRSS4 (11747572_a_at) / RFU HAMP (11756126_x_at) / Fold change /veh HAMP (11756126_x_at) / RFU RNFT2 (11725882_a_at) / Fold change /veh RNFT2 (11725882_a_at) / RFU NR4A2 (11747474_a_at) / Fold change /veh NR4A2 (11747474_a_at) / RFU ABCC12 (11746883_a_at) / Fold change /veh ABCC12 (11746883_a_at) / RFU TMEM136 (11760407_x_at) / Fold change /veh TMEM136 (11760407_x_at) / RFU CLDN22 /// WWC2 (11732394_at) / Fold change /veh CLDN22 /// WWC2 (11732394_at) / RFU HLA-DPB1 (11760878_x_at) / Fold change /veh HLA-DPB1 (11760878_x_at) / RFU SPINT1 (11716480_a_at) / Fold change /veh SPINT1 (11716480_a_at) / RFU GAP43 (11754022_s_at) / Fold change /veh GAP43 (11754022_s_at) / RFU A4GNT (11735810_at) / Fold change /veh A4GNT (11735810_at) / RFU PRB3 (11715151_x_at) / Fold change /veh PRB3 (11715151_x_at) / RFU TUBB4B (11761932_at) / Fold change /veh TUBB4B (11761932_at) / RFU CAPN14 (11732068_a_at) / Fold change /veh CAPN14 (11732068_a_at) / RFU TMCC2 (11721928_a_at) / Fold change /veh TMCC2 (11721928_a_at) / RFU IRGQ (11745062_a_at) / Fold change /veh IRGQ (11745062_a_at) / RFU FAM174B (11720279_a_at) / Fold change /veh FAM174B (11720279_a_at) / RFU TMPRSS4 (11748680_a_at) / Fold change /veh TMPRSS4 (11748680_a_at) / RFU FAM212B (11763350_a_at) / Fold change /veh FAM212B (11763350_a_at) / RFU PLEKHG5 (11743358_a_at) / Fold change /veh PLEKHG5 (11743358_a_at) / RFU ZSCAN30 (11745921_a_at) / Fold change /veh ZSCAN30 (11745921_a_at) / RFU CMKLR1 (11741424_a_at) / Fold change /veh CMKLR1 (11741424_a_at) / RFU LOC101060620 /// MAPK8IP1 (11723275_at) / Fold change /veh LOC101060620 /// MAPK8IP1 (11723275_at) / RFU SPTSSB (11747773_x_at) / Fold change /veh SPTSSB (11747773_x_at) / RFU PRSS12 (11739890_at) / Fold change /veh PRSS12 (11739890_at) / RFU BIN1 (11741810_x_at) / Fold change /veh BIN1 (11741810_x_at) / RFU WNT11 (11732464_a_at) / Fold change /veh WNT11 (11732464_a_at) / RFU C10orf10 (11716521_a_at) / Fold change /veh C10orf10 (11716521_a_at) / RFU C5orf56 (11738089_at) / Fold change /veh C5orf56 (11738089_at) / RFU CYB561 (11721691_x_at) / Fold change /veh CYB561 (11721691_x_at) / RFU ANKRD19P (11752326_a_at) / Fold change /veh ANKRD19P (11752326_a_at) / RFU OR2T12 /// OR2T33 /// OR2T8 (11738714_s_at) / Fold change /veh OR2T12 /// OR2T33 /// OR2T8 (11738714_s_at) / RFU VCAN (11748164_a_at) / Fold change /veh VCAN (11748164_a_at) / RFU JSRP1 (11732532_at) / Fold change /veh JSRP1 (11732532_at) / RFU KRTAP10-11 (11738290_x_at) / Fold change /veh KRTAP10-11 (11738290_x_at) / RFU MYO3A (11730013_a_at) / Fold change /veh MYO3A (11730013_a_at) / RFU EBF3 (11725865_a_at) / Fold change /veh EBF3 (11725865_a_at) / RFU CAMK2N1 (11719241_x_at) / Fold change /veh CAMK2N1 (11719241_x_at) / RFU C5orf56 (11738088_a_at) / Fold change /veh C5orf56 (11738088_a_at) / RFU OLFML3 (11715873_a_at) / Fold change /veh OLFML3 (11715873_a_at) / RFU LOC100653217 /// NTM (11731650_a_at) / Fold change /veh LOC100653217 /// NTM (11731650_a_at) / RFU MAPK11 (11762145_a_at) / Fold change /veh MAPK11 (11762145_a_at) / RFU FIZ1 (11724087_x_at) / Fold change /veh FIZ1 (11724087_x_at) / RFU OASL (11726364_x_at) / Fold change /veh OASL (11726364_x_at) / RFU SOX15 (11748057_x_at) / Fold change /veh SOX15 (11748057_x_at) / RFU CD79A (11719716_a_at) / Fold change /veh CD79A (11719716_a_at) / RFU HIST1H1D (11736915_at) / Fold change /veh HIST1H1D (11736915_at) / RFU CASKIN2 (11723855_a_at) / Fold change /veh CASKIN2 (11723855_a_at) / RFU LOC730098 (11760151_x_at) / Fold change /veh LOC730098 (11760151_x_at) / RFU OR4N2 (11742367_at) / Fold change /veh OR4N2 (11742367_at) / RFU PRRT2 (11749266_a_at) / Fold change /veh PRRT2 (11749266_a_at) / RFU SNX32 (11753110_a_at) / Fold change /veh SNX32 (11753110_a_at) / RFU CDHR5 (11726645_a_at) / Fold change /veh CDHR5 (11726645_a_at) / RFU RCAN1 (11760418_a_at) / Fold change /veh RCAN1 (11760418_a_at) / RFU FAM167A (11723789_a_at) / Fold change /veh FAM167A (11723789_a_at) / RFU FAM26E (11764081_at) / Fold change /veh FAM26E (11764081_at) / RFU ISYNA1 (11749810_s_at) / Fold change /veh ISYNA1 (11749810_s_at) / RFU ACY1 (11761880_at) / Fold change /veh ACY1 (11761880_at) / RFU 11764098_at / Fold change /veh 11764098_at / RFU SAMD14 (11745864_x_at) / Fold change /veh SAMD14 (11745864_x_at) / RFU NPB (11741838_a_at) / Fold change /veh NPB (11741838_a_at) / RFU TMPRSS6 (11731388_a_at) / Fold change /veh TMPRSS6 (11731388_a_at) / RFU KRTAP10-2 (11738614_at) / Fold change /veh KRTAP10-2 (11738614_at) / RFU ARHGAP8 /// PRR5-ARHGAP8 (11727945_x_at) / Fold change /veh ARHGAP8 /// PRR5-ARHGAP8 (11727945_x_at) / RFU KRTAP5-7 /// NADSYN1 (11734609_at) / Fold change /veh KRTAP5-7 /// NADSYN1 (11734609_at) / RFU RASL12 (11751679_a_at) / Fold change /veh RASL12 (11751679_a_at) / RFU CDKN2B (11736163_a_at) / Fold change /veh CDKN2B (11736163_a_at) / RFU PRF1 (11729649_at) / Fold change /veh PRF1 (11729649_at) / RFU, ZNF638 /// ZNF638-IT1 / Fold change vs veh, ZNF638 /// ZNF638-IT1 / RFU, PANK3 / Fold change vs veh, PANK3 / RFU, SH3YL1 / Fold change vs veh, SH3YL1 / RFU, ZEB2 / Fold change vs veh, ZEB2 / RFU, NRIP1 / Fold change vs veh, NRIP1 / RFU, PTTG1IP / Fold change vs veh, PTTG1IP / RFU, CAPN2 / Fold change vs veh, CAPN2 / RFU, MED14 / Fold change vs veh, MED14 / RFU, SNORA58 / Fold change vs veh, SNORA58 / RFU, C1orf63 / Fold change vs veh, C1orf63 / RFU, LRRFIP1 / Fold change vs veh, LRRFIP1 / RFU, NDUFAF7 / Fold change vs veh, NDUFAF7 / RFU, SLC12A2 / Fold change vs veh, SLC12A2 / RFU, IBTK / Fold change vs veh, IBTK / RFU, ESF1 / Fold change vs veh, ESF1 / Fold change vs veh, TMEM50B / RFU, TAOK1 / Fold change vs veh, TAOK1 / RFU, ACBD3 / Fold change vs veh, ACBD3 / RFU, TMA16 / Fold change vs veh, TMA16 / RFU, RWDD3 / Fold change vs veh, RWDD3 / RFU, BCAT1 / Fold change vs veh, BCAT1 / RFU, EDEM3 / Fold change vs veh, EDEM3 / RFU, TMEM33 / Fold change vs veh, TMEM33 / RFU, WDR75 / Fold change vs veh, WDR75 / RFU, AHCTF1 / Fold change vs veh, AHCTF1 / RFU, TFRC / Fold change vs veh, TFRC / RFU, ZDHHC17 / Fold change vs veh, ZDHHC17 / RFU, NOM1 / Fold change vs veh, NOM1 / RFU, ARL8B / Fold change vs veh, ARL8B / RFU, ZBTB11 / Fold change vs veh, ZBTB11 / RFU, TAMM41 / Fold change vs veh, TAMM41 / RFU, KIAA1704 /// LOC100996395 / Fold change vs veh, KIAA1704 /// LOC100996395 / RFU, ING1 / Fold change vs veh, ING1 / RFU, TRMT61B / Fold change vs veh, TRMT61B / RFU, FUBP3 / Fold change vs veh, FUBP3 / RFU, TP53 / Fold change vs veh, TP53 / RFU, TNKS2 / Fold change vs veh, TNKS2 / RFU, ZFP14 / Fold change vs veh, ZFP14 / RFU, ACTR2 / Fold change vs veh, ACTR2 / RFU, PPP3R1 / Fold change vs veh, PPP3R1 / RFU, PIK3R1 / Fold change vs veh, PIK3R1 / RFU, HNRNPA1 / Fold change vs veh, HNRNPA1 / RFU, RNF170 / Fold change vs veh, RNF170 / RFU, ZNF28 / Fold change vs veh, ZNF28 / RFU, RNGTT / Fold change vs veh, RNGTT / RFU, OGT / Fold change vs veh, OGT / RFU, BRD1 / Fold change vs veh, BRD1 / RFU, MARS / Fold change vs veh, MARS / RFU, ZNF655 / Fold change vs veh, ZNF655 / RFU, FAHD1 / Fold change vs veh, FAHD1 / RFU, BDP1 / Fold change vs veh, BDP1 / RFU, LRRCC1 / Fold change vs veh, LRRCC1 / RFU, ARID1A / Fold change vs veh, ARID1A / RFU, ZNF146 / Fold change vs veh, ZNF146 / RFU, ZNF330 / Fold change vs veh, ZNF330 / RFU, GPN3 / Fold change vs veh, GPN3 / RFU, C9orf123 / Fold change vs veh, C9orf123 / RFU, N4BP2L2 / Fold change vs veh, N4BP2L2 / RFU, ARFIP1 / Fold change vs veh, ARFIP1 / RFU, FAM179B / Fold change vs veh, FAM179B / RFU, BCL10 / Fold change vs veh, BCL10 / RFU, UHRF1BP1L / Fold change vs veh, UHRF1BP1L / RFU, BET1 / Fold change vs veh, BET1 / RFU, CNOT2 / Fold change vs veh, CNOT2 / RFU, ZNF268 / Fold change vs veh, ZNF268 / Fold change vs veh, ZNF507 / RFU, DGCR2 / Fold change vs veh, DGCR2 / RFU, WDSUB1 / Fold change vs veh, WDSUB1 / Fold change vs veh, HSP90B1 /// MIR3652 / RFU, ADSS / Fold change vs veh, ADSS / RFU, GK / Fold change vs veh, GK / RFU, ZNF148 / Fold change vs veh, ZNF148 / RFU, TAF9 / Fold change vs veh, TAF9 / RFU, SLC1A5 / Fold change vs veh, SLC1A5 / RFU, SLMO2 / Fold change vs veh, SLMO2 / RFU, ABCC4 / Fold change vs veh, ABCC4 / RFU, LOC101060439 /// RAP1B / Fold change vs veh, LOC101060439 /// RAP1B / RFU, RFX7 / Fold change vs veh, RFX7 / RFU, GTPBP10 / Fold change vs veh, GTPBP10 / RFU, CNEP1R1 / Fold change vs veh, CNEP1R1 / RFU, BIVM-ERCC5 /// ERCC5 / Fold change vs veh, BIVM-ERCC5 /// ERCC5 / RFU, ILF3 / Fold change vs veh, ILF3 / RFU 11762660_at / Fold change /veh 11762660_at / RFU VCAN (11757783_s_at) / Fold change /veh VCAN (11757783_s_at) / RFU DDX43 (11728927_at) / Fold change /veh DDX43 (11728927_at) / RFU KRT8 (11758188_x_at) / Fold change /veh KRT8 (11758188_x_at) / RFU NKD1 (11759106_at) / Fold change /veh NKD1 (11759106_at) / RFU SRD5A1 (11742802_a_at) / Fold change /veh SRD5A1 (11742802_a_at) / RFU TPSAB1 /// TPSB2 (11721975_s_at) / Fold change /veh TPSAB1 /// TPSB2 (11721975_s_at) / RFU GSTM3 (11746129_a_at) / Fold change /veh GSTM3 (11746129_a_at) / RFU IL23R (11737362_x_at) / Fold change /veh IL23R (11737362_x_at) / RFU TMEM51 (11727254_a_at) / Fold change /veh TMEM51 (11727254_a_at) / RFU PIWIL2 (11732686_x_at) / Fold change /veh PIWIL2 (11732686_x_at) / RFU ORM1 (11744905_x_at) / Fold change /veh ORM1 (11744905_x_at) / RFU CCDC152 (11743942_at) / Fold change /veh CCDC152 (11743942_at) / RFU ECM1 (11717891_a_at) / Fold change /veh ECM1 (11717891_a_at) / RFU IL23R (11748794_a_at) / Fold change /veh IL23R (11748794_a_at) / RFU TNFAIP8L3 (11732012_x_at) / Fold change /veh TNFAIP8L3 (11732012_x_at) / RFU MBOAT4 (11741988_at) / Fold change /veh MBOAT4 (11741988_at) / RFU 11764193_at / Fold change /veh 11764193_at / RFU TMEM53 (11763286_at) / Fold change /veh TMEM53 (11763286_at) / RFU MAGEB2 (11727129_at) / Fold change /veh MAGEB2 (11727129_at) / RFU TMEM200A (11744735_a_at) / Fold change /veh TMEM200A (11744735_a_at) / RFU CCDC152 (11751479_a_at) / Fold change /veh CCDC152 (11751479_a_at) / RFU FAM211A (11726209_a_at) / Fold change /veh FAM211A (11726209_a_at) / RFU RGS16 (11746705_a_at) / Fold change /veh RGS16 (11746705_a_at) / RFU VCAN (11755009_s_at) / Fold change /veh VCAN (11755009_s_at) / RFU RHOB (11743442_s_at) / Fold change /veh RHOB (11743442_s_at) / RFU RGS16 (11720943_a_at) / Fold change /veh RGS16 (11720943_a_at) / RFU RGS16 (11720944_at) / Fold change /veh RGS16 (11720944_at) / RFU, VPS4B / Fold change vs veh, VPS4B / RFU, CREB1 / Fold change vs veh, CREB1 / RFU, DNAJC13 / Fold change vs veh, DNAJC13 / RFU, GNAQ / Fold change vs veh, GNAQ / RFU, CDK5R1 / Fold change vs veh, CDK5R1 / RFU, ZRANB3 / Fold change vs veh, ZRANB3 / RFU, CUL4A / Fold change vs veh, CUL4A / RFU, CCNY / Fold change vs veh, CCNY / RFU, UFL1 / Fold change vs veh, UFL1 / RFU, COG3 / Fold change vs veh, COG3 / RFU, DIAPH2 / Fold change vs veh, DIAPH2 / RFU, SKA2 / Fold change vs veh, SKA2 / RFU, AFF3 / Fold change vs veh, AFF3 / RFU, LMF1 / Fold change vs veh, LMF1 / RFU, IPO11 / Fold change vs veh, IPO11 / RFU, DFFB / Fold change vs veh, DFFB / RFU, FOXP1 / Fold change vs veh, FOXP1 / RFU, CARD8 / Fold change vs veh, CARD8 / RFU, STRN3 / Fold change vs veh, STRN3 / RFU, ADK / Fold change vs veh, ADK / RFU, RASSF2 / Fold change vs veh, RASSF2 / RFU, WIPF1 / Fold change vs veh, WIPF1 / RFU, LARP1B / Fold change vs veh, LARP1B / RFU, RASA1 / Fold change vs veh, RASA1 / RFU, RB1 / Fold change vs veh, RB1 / RFU, PPFIA1 / Fold change vs veh, PPFIA1 / RFU, MAT2A / Fold change vs veh, MAT2A / RFU, CCT5 / Fold change vs veh, CCT5 / RFU, WDR92 / Fold change vs veh, WDR92 / RFU, CUX1 / Fold change vs veh, CUX1 / RFU, TTC7A / Fold change vs veh, TTC7A / RFU, TMEM135 / Fold change vs veh, TMEM135 / RFU, DEPTOR / Fold change vs veh, DEPTOR / RFU, CPM / Fold change vs veh, CPM / RFU, DNAJB6 / Fold change vs veh, DNAJB6 / RFU, CACNA2D3 / Fold change vs veh, CACNA2D3 / RFU, DTX4 / Fold change vs veh, DTX4 / RFU, TFCP2 / Fold change vs veh, TFCP2 / RFU, GMCL1 /// GMCL1P1 / Fold change vs veh, GMCL1 /// GMCL1P1 / RFU, AEBP2 / Fold change vs veh, AEBP2 / RFU, SNHG1 /// SNORD22 /// SNORD25 /// SNORD26 /// SNORD27 /// SNORD28 /// SNORD29 /// SNORD31 / Fold change vs veh, SNHG1 /// SNORD22 /// SNORD25 /// SNORD26 /// SNORD27 /// SNORD28 /// SNORD29 /// SNORD31 / Fold change (Aza/veh), C12orf56 (ProbeSet 11735607_a_at) / Fold change (ACY-1035/veh), C12orf56 (ProbeSet 11735607_a_at) / Fold change (Aza/veh), FGFR1OP (ProbeSet 11751329_s_at) / Fold change (ACY-1035/veh), FGFR1OP (ProbeSet 11751329_s_at) / Fold change (Aza/veh), VPS36 (ProbeSet 11739960_a_at) / Fold change (ACY-1035/veh), VPS36 (ProbeSet 11739960_a_at) / RFU SYPL1 (11715823_x_at) / Fold change /veh SYPL1 (11715823_x_at) / RFU IGFBP7 (11715501_s_at) / Fold change /veh IGFBP7 (11715501_s_at) / RFU REEP3 (11722064_at) / Fold change /veh REEP3 (11722064_at) / RFU IGLL1 (11728026_x_at) / Fold change /veh IGLL1 (11728026_x_at): dose or concentration left out as unconfirmed
Details: MV-4-11 cells, 48 hours

With `Nc1ccc(-c2cccs2)cc1NC(=O)c1ccc2c(c1)cc(C1CC1)n2CCN1CCOCC1` [ACY-1035] the “Fold change /veh IL23R (11748794_a_at)” value was 0.98.
